# Measured values taken from patent US11136311B2, “Heteroaromatic derivatives as NIK inhibitors” (Janssen Pharmaceutica NV, priority 2016, dated 2021).
# Where two headings read alike, the source gives them in different places.
# Experiments:
# [1] = target: recombinant human NF-kappaB-inducing kinase (NIK/MAP3K14) (Homo sapiens (Human), UniProt Q99558); experiment: Inhibition of auto-phosphorylation of recombinant human NIK/MAP3K14 activity (AlphaScreen); type: biochemical; settings: averaged values over all measurements on all batches
# Experimental: Inhibition of auto-phosphorylation of recombinant human NF-kappaB-inducing kinase (NIK/MAP3K14) activity (AlphaScreen®)
# NIK/MAP3K14 auto-phosphorylation activity was measured using the AlphaScreen® (αscreen) format (Perkin Elmer). All compounds tested were dissolved in dimethyl sulfoxide (DMSO) and further dilutions were made in assay buffer. Final DMSO concentration was 1% (v/v) in assays. Assay buffer was 50 mM Tris pH 7.5 containing 1 mM EGTA (ethylene glycol tetraacetic acid), 1 mM DTT (dithiothreitol), 0.1 mM Na3VO4, 5 mM MgCl2, 0.01% Tween® 20. Assays were carried out in 384 well Alphaplates (Perkin Elmer). Incubations consisted of compound, 25 microM Adenosine-5′-triphosphate (ATP), and 0.2 nM NIK/MAP3K14. Incubations were initiated by addition of GST-tagged NIK/MAP3K14 enzyme, carried out for 1 h at 25° C. and terminated by addition of stop buffer containing anti-phospho-IKK Ser176/180 antibody. Protein A Acceptor and Glutathione-Donor beads were added before reading using an EnVision® Multilabel Plate Reader (Perkin Elmer). Signal obtained in the wells containing blank samples was subtracted from all other wells and IC50's were determined by fitting a sigmoidal curve to % inhibition of control versus Log10 compound concentration.
# JJN-3 cells = experiment: Antiproliferative activity on JJN-3 (NIK translocated) multiple myeloma cells (CellTiter-Glo); type: cell-based, human; settings: JJN-3 (NIK translocated) cells, 96 hr, averaged values, read-out: JJN-3 Proliferation inhibition (IC50 (nM))
# Experimental: (§1) Determination of antiproliferative activity on JJN-3 (NIK translocated) and KMS12-BM (NIK WT) multiple myeloma cells
# (§2) All compounds tested were dissolved in DMSO and further dilutions were made in culture medium. Final DMSO concentration was 0.3% (v/v) in cell proliferation assays. Viability was assessed using CellTiter-Glo cell viability assay kit (Promega). The human JJN-3 and KMS12-BM cells (DSMZ) were cultured in RPMI 1640 medium supplemented with 2 mM L-glutamine, and 10% fetal calf serum (PAA). Cells were routinely kept as suspension cells at 37° C. in a humidified 5% CO2 atmosphere. Cells were passaged at a seeding density of 0.2×10^6/ml twice a week. Cells were seeded in black tissue culture treated 96-well plates (Perkin Elmer). Densities used for plating ranged from 15000 (JJN3) to 20000 (KMS12BM) cells per well in a total volume of 135 μl medium. Drugs and/or solvents were added (15 μl) to a final volume of 150 μl. Following 96 hr of treatment, plates were removed from the incubator and allowed to equilibrate to room temperature for approx 10 min. 75 μl CellTiter-Glo reagent was added to each well that was then covered (Perkin Elmer Topseal) and shaken on plate shaker for 10 min. Luminescence was measured on a HTS Topcount (Perkin Elmer). Within an experiment, the results for each treatment were the mean of 2 replicate wells. For initial screening purposes, compounds were tested using a 9 point dilution curve (serial 1:3 dilutions). For each experiment, controls (containing no drug) and a blank incubation (containing cells read at the time of compound addition) were run in parallel. The blank value was subtracted from all control and sample values. For each sample, the mean value for cell growth (in relative light units) was expressed as a percentage of the mean value for cell growth of the control.
# KMS12-BM cells = experiment: Antiproliferative activity on KMS12-BM (NIK WT) multiple myeloma cells (CellTiter-Glo); type: cell-based, human; settings: KMS12-BM (NIK WT) cells, 96 hr, averaged values, read-out: KMS-12 Proliferation inhibition (IC50 (nM))
# Experimental: as §1, §2
# Chain of recombinant human NF-kappaB-inducing kinase (NIK/MAP3K14) (Q99558 whole entry): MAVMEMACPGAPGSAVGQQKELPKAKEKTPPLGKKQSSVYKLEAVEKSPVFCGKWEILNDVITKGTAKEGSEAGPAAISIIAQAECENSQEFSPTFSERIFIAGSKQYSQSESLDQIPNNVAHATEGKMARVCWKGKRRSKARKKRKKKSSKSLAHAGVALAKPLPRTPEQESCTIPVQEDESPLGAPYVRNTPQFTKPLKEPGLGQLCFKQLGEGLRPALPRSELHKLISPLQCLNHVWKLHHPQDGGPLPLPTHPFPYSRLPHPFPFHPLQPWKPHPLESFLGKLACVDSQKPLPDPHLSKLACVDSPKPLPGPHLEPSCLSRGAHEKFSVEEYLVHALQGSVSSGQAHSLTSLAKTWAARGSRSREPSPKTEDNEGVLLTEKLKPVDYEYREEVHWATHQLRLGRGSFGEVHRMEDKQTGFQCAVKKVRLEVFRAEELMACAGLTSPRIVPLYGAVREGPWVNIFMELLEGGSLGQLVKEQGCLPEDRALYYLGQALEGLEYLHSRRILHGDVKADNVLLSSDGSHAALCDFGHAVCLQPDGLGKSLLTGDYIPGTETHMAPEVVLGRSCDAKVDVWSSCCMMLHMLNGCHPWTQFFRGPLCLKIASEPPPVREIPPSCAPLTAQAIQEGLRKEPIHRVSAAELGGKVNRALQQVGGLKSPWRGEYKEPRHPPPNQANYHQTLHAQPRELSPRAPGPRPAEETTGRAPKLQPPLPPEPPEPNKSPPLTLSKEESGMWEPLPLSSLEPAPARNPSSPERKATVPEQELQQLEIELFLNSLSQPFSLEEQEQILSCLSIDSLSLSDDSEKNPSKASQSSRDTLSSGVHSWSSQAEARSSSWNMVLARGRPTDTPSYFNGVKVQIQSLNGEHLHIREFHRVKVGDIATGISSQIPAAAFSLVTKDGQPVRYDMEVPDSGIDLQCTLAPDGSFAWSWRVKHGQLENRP
SMILES,IC50 [1] [nM],"IC50 (JJN-3 cells; Homo sapiens, JJN-3, 96 h) [nM]","IC50 (KMS12-BM cells; Homo sapiens, KMS-12-BM, 96 h) [nM]",IC50 (KMS12-BM cells) [nM],IC50 (JJN-3 cells) [nM]
Cc1cc(Nc2nccc(-c3cc(C#N)c4c(c3)[C@@](C)(CO)CN4)n2)n(C2CCS(=O)(=O)C2)n1 (mixture of isomers) [Compound 33],9.1,1260,~6170,,
"Cc1cc(Nc2nccc(-c3cc(C#N)c4c(c3)[C@@](C)(CO)CN4)n2)n(CC2CCCO2)n1 (single isomer, unassigned) [Compound 51]",4.1,~59,,~1900,
"Cc1cc(Nc2nccc(-c3cc(C#N)c4c(c3)[C@@](C)(CO)CN4)n2)n(CC2CCCO2)n1 (single isomer, unassigned) [Compound 52]",6.9,,,> 10000,115
"Cc1cc(Nc2nccc(-c3cc(C#N)c4c(c3)[C@@](C)(CO)CN4)n2)n(CC2CCCCO2)n1 (single isomer, unassigned) [Compound 68]",5.3,,> 10000,,38
"Cc1cc(Nc2nccc(-c3cc(C#N)c4c(c3)[C@@](C)(CO)CN4)n2)n(CC2CCCCO2)n1 (single isomer, unassigned) [Compound 69]",5.8,,,> 10000,78
"COC(C)Cn1nc(C)cc1Nc1nccc(-c2cc(C#N)c3c(c2)[C@@](C)(CO)CN3)n1 (single isomer, unassigned) [Compound 77]",13,309,,1580,
"COC(C)Cn1nc(C)cc1Nc1nccc(-c2cc(C#N)c3c(c2)[C@@](C)(CO)CN3)n1 (single isomer, unassigned) [Compound 78]",9.8,,,9120,457
Cn1ccc(Nc2nccc(-c3cc(C#N)c4c(c3)C(C)(CO)CN4)n2)n1 (centres unmarked) [Compound 1],4,250,2430,,
Cn1nccc1Nc1nccc(-c2cc(C#N)c3c(c2)C(C)(CO)CN3)n1 (centres unmarked) [Compound 2],6.9,141,794,,
Cc1cc(Nc2nccc(-c3cc(C#N)c4c(c3)C(C)(CO)CN4)n2)n(C)n1 (centres unmarked) [Compound 3],4.2,407,~1230,,
Cn1cc(Nc2nccc(-c3cc(C#N)c4c(c3)C(C)(CO)CN4)n2)cn1 (centres unmarked) [Compound 4],2.5,~55,162,,
Cn1nc(C2(C)COC2)cc1Nc1nccc(-c2cc(C#N)c3c(c2)C(C)(CO)CN3)n1 (centres unmarked) [Compound 5],5.4,708,> 10000,,
Cn1nc(C2CCCCC2)cc1Nc1nccc(-c2cc(C#N)c3c(c2)C(C)(CO)CN3)n1 (centres unmarked) [Compound 6],7.6,347,> 10000,,
CC(C)(C)c1cc(Nc2nccc(-c3cc(C#N)c4c(c3)C(C)(CO)CN4)n2)n(CCO)n1 (centres unmarked) [Compound 10],13,724,> 10000,,
Cc1cc(Nc2nccc(-c3cc(C#N)c4c(c3)C(C)(CO)CN4)n2)n(CCN(C)C)n1 (centres unmarked) [Compound 11],,576,3700,,
CN1CCC(n2cc(Nc3nccc(-c4cc(C#N)c5c(c4)C(C)(CO)CN5)n3)cn2)CC1 (centres unmarked) [Compound 12],3.6,~45,~214,,
COCCn1nc(C)cc1Nc1nccc(-c2cc(C#N)c3c(c2)C(C)(CO)CN3)n1 (centres unmarked) [Compound 14],7.1,234,~7240,,
COCCn1ccc(Nc2nccc(-c3cc(C#N)c4c(c3)C(C)(CO)CN4)n2)n1 (centres unmarked) [Compound 16],2.8,525,7080,,
Cn1ccc(Nc2nccc(-c3cc(C#N)c4c(c3)[C@@](C)(CO)CN4)n2)n1 [Compound 19],2.2,163,2720,,
CC(C)n1ccc(Nc2nccc(-c3cc(C#N)c4c(c3)C(C)(CO)CN4)n2)n1 (centres unmarked) [Compound 20],3.4,229,2510,,

SMILES,IC50 [1] [nM],"IC50 (JJN-3 cells; Homo sapiens, JJN-3, 96 h) [nM]","IC50 (KMS12-BM cells; Homo sapiens, KMS-12-BM, 96 h) [nM]",IC50 (KMS12-BM cells) [nM],IC50 (JJN-3 cells) [nM]
CC1(CO)CNc2c(C#N)cc(-c3ccnc(Nc4cc[nH]n4)n3)cc21 (centres unmarked) [Compound 21],2.9,813,1020,,
Cn1nc(Nc2nccc(-c3cc(C#N)c4c(c3)C(C)(CO)CN4)n2)cc1C(=O)N1CCC(F)(F)CC1 (centres unmarked) [Compound 22],18,2340,> 10000,,
COCCCn1ccc(Nc2nccc(-c3cc(C#N)c4c(c3)C(C)(CO)CN4)n2)n1 (centres unmarked) [Compound 23],4.9,295,3890,,
CC(C)n1nccc1Nc1nccc(-c2cc(C#N)c3c(c2)C(C)(CO)CN3)n1 (centres unmarked) [Compound 24],10,646,> 10000,,
Cn1nc(C(=O)NC2CCOCC2)cc1Nc1nccc(-c2cc(C#N)c3c(c2)C(C)(CO)CN3)n1 (centres unmarked) [Compound 25],8.1,1900,1510,,
Cn1nc(Nc2nccc(-c3cc(C#N)c4c(c3)C(C)(CO)CN4)n2)cc1C1(C)COC1 (centres unmarked) [Compound 26],10,457,~2950,,
COCCCn1nccc1Nc1nccc(-c2cc(C#N)c3c(c2)C(C)(CO)CN3)n1 (centres unmarked) [Compound 27],13,389,~4570,,
Cn1nc(C(=O)N2CCC(F)(F)CC2)cc1Nc1nccc(-c2cc(C#N)c3c(c2)C(C)(CO)CN3)n1 (centres unmarked) [Compound 28],~17,2570,> 10000,,
Cn1nc(Nc2nccc(-c3cc(C#N)c4c(c3)C(C)(CO)CN4)n2)cc1C1CC1 (centres unmarked) [Compound 29],4.4,~603,1440,,
CC1(CO)CNc2c(C#N)cc(-c3ccnc(Nc4cnn(CC(F)F)c4)n3)cc21 (centres unmarked) [Compound 30],3.2,47,~170,,
CC(C)n1ccc(Nc2nccc(-c3cc(C#N)c4c(c3)[C@](C)(CO)CN4)n2)n1 [Compound 31],14,589,> 10000,,
Cn1cc(Cl)c(Nc2nccc(-c3cc(C#N)c4c(c3)C(C)(CO)CN4)n2)n1 (centres unmarked) [Compound 32],27,7760,> 10000,,
Cn1ccc(Nc2nccc(-c3cc(C#N)c4c(c3)[C@](C)(CO)CN4)n2)n1 [Compound 34],10,1180,~10000,,
Cc1c(Nc2nccc(-c3cc(C#N)c4c(c3)C(C)(CO)CN4)n2)cnn1C (centres unmarked) [Compound 36],2.6,174,7590,,
CN1CCC(n2ccc(Nc3nccc(-c4cc(C#N)c5c(c4)[C@@](C)(CO)CN5)n3)n2)CC1 [Compound 37],2,162,182,,
CN1CCC(n2nccc2Nc2nccc(-c3cc(C#N)c4c(c3)[C@@](C)(CO)CN4)n2)CC1 [Compound 38],47,3980,3890,,
Cn1nc(Nc2nccc(-c3cc(C#N)c4c(c3)[C@@](C)(CO)CN4)n2)cc1CN1CCOCC1 [Compound 39],32,1440,> 10000,,
C[C@]1(CO)CNc2c(C#N)cc(-c3ccnc(Nc4ccn(CC5CC5)n4)n3)cc21 [Compound 40],2.2,295,562,,
Cn1nc(Cl)cc1Nc1nccc(-c2cc(C#N)c3c(c2)[C@@](C)(CO)CN3)n1 [Compound 41],2.1,78,~479,,
Cn1nc(Nc2nccc(-c3cc(C#N)c4c(c3)[C@@](C)(CO)CN4)n2)cc1Cl [Compound 43],2.6,234,933,,
